Assay results taken from a melting point compilation (Tetko et al.; mined from patent text by program, amines drawn as free bases though some values may be those of a salt).

SMILES | melting point [°C]
O=C(C(=O)N1CCC(N2CCCCC2)CC1)c1ccc2n1Cc1ccccc1N(C(=O)c1ccc(C3CCCCC3)cc1)C2 | 190 to 195
COCC(=O)Nc1ccc2ncnc(Nc3cccc(I)c3)c2c1 | 159 to 163
COc1ccoc1C1OC(=O)NC1=O (stereo not given) | 102 to 104
C#CCOc1ccc2cc(C(=O)OCC)c(=O)oc2c1 | 252
CCCc1cc(Cl)c(OC(C(=O)O)c2ccccc2)c(C(C)=O)c1O (stereo not given) | 131 to 133
CCCCCCCCCCCCc1ccc(CCC(COC(C)=O)(COC(C)=O)NC(C)=O)cc1 | 111 to 113
CCc1ccc(-c2ccc3c(c2)C=C(C(=O)O)CCO3)cc1 | 241 to 243
CN(C)CC1Cc2ccc(NC(=O)c3ccc(-c4ccc(Cl)cc4)cc3)cc2C1 (stereo not given) | 192 to 194
COC(=O)c1c(OC(C)=O)cc(CBr)cc1OC(C)=O | 93 to 95
Cc1cccc(NC(=O)NCC(=O)N(CC(=O)N2CCSC(C)(C)C2)c2ccccc2)c1 | 186
CC(C)CC[C@@H]1[C@H](c2ccccc2)OC(=O)N1CCCN1CCCCC1 (racemic) | 111 to 112
CCOC(=O)c1nc2ccc(I)cc2[nH]1 | 166 to 168
CC(C)(C)OC(=O)Nc1ccc(I)cc1[N+](=O)[O-] | 92 to 94
CC(Oc1ccc(C#N)cc1)c1ccnc2ncnn12 (stereo not given) | 163 to 164
Oc1cc(O)cc(OCc2ccccc2)c1 | 85 to 86
CC(=O)N1CCN(CCNc2ncc3ncnc(Nc4ccc(F)c(Cl)c4)c3n2)CC1 | 196 to 198
O=[N+]([O-])c1cccnc1Nc1cc(F)ccc1F | 150 to 152
CCCCCCc1cc2c(cc1CNCC(=O)O)C(=O)CC2 | 70
CCOC(=O)C(=CNc1ncnc2cc(C)c(C)cc12)C(=O)OCC | 146 to 148
Cc1cc(C(=O)Nc2ccc(C(=O)O)cc2)no1 | 267 to 270
O=S1(=O)c2ccccc2NC2CCCN21 (stereo not given) | 149 to 154
Cc1cc(-c2[nH]c3ccc([N+](=O)[O-])cc3c2C)cc(C)c1O | 229 to 231
COc1ccc2c(c1O)C13CCN(CC4CC4)C(C2)C1CC(C)C(=O)C3 (stereo not given) | 176 to 178
CCCCCCCCCCCCCCCCCCOc1cc2ccccc2cc1O | 60 to 62
CCc1nc2c(N)nc3cc(OCCN(C(N)=O)C(C)C)ccc3c2n1CC1CCOCC1 | 223 to 225

SMILES | melting point [°C]
NNC(=O)c1ccc2ncccc2c1 | 193 to 194
CCC1C(C)=NN=C(c2cc(OC)c(OC)c(OC)c2)c2cc(OC)c(OC)cc21 (stereo not given) | 152 to 155
CCCCCCCN1C(=O)C2CC(c3ccc(N)cc3)(C2)C1=O | 69 to 71
CN1CCC(c2c[nH]c3ccc(NC(=O)c4ccc5ccccc5c4)cc23)CC1 | 153 to 156
CCc1nc2c(C)cc(C)nc2n1Cc1ccc(-c2ccccc2)c(-c2nc(=O)o[nH]2)c1 | 149 to 152
COC1C(c2ccccc2)=C(c2ccc(S(C)(=O)=O)cc2)C1(C)C (stereo not given) | 130 to 132
COC(=O)c1ccc(F)cc1SC(=O)N(C)C | 190
COC(=O)CC[C@H](NC(=O)c1ccc(CCn2cnc3nccc-3c2NO)cc1)C(=O)OC | 170 to 172
CCNC(=O)Nc1cc(-c2c(-c3ccc(F)c(C)c3)nc3ccc(NC)nn23)ccn1 | 263 to 264
CC1(C)C(C=C(F)C(=O)OCC(F)(F)F)C1C(=O)OC(C#N)c1ccc(F)c(Oc2ccccc2)c1 (stereo not given) | 85
O=C(O)/C=C/c1ccc(OCC2CCCO2)cc1Oc1ncc(C(F)(F)F)cc1Cl (stereo not given) | 106 to 109
O=C(CCCO)NCC1c2ccccc2CCc2ccccc21 | 98 to 99
O=C(CCCc1c[nH]c2ccccc12)NCc1ccccc1 | 132 to 133
NS(=O)(=O)c1nc2ccc(OC(=O)c3ccccc3)cc2s1 | 208 to 210
COc1cc(C(C)=O)ccc1OCCCN1CCN(n2ncc3ccc(F)cc32)CC1 | 135 to 137
CN1C=CCC(C(=O)NCCc2ccc(OC(=O)C(C)(C)C)c(OC(=O)C(C)(C)C)c2)=C1 | 45 to 48
CCn1cc(C2(c3cccc(Br)c3)N=C(N)N(C)C2=O)cc1C=O (stereo not given) | 194 to 195
Nc1nc(N)c2cc(Cc3ccc4ccccc4c3)ccc2n1 | 256 to 257
Oc1nc2ccccc2c(O)c1O | > 250
CCOC(=O)c1ccc(N2CSCC2=O)cc1 | 68 to 69
CCc1c(-c2ccncc2)[nH]c(-c2ccncc2)c1C(C)=O | 241 to 243
NC(=NCC(F)(F)F)Nc1ccnc(CCCCO)n1 | 135 to 136
O=c1[nH]c2sc3c(F)cccc3c2[nH]c1=O | > 35
FC(F)(F)c1nnnn1-c1ccc(C2=NOC(c3cc(Cl)cc(Cl)c3)(C(F)(F)F)C2)cc1 (stereo not given) | 147 to 151
N#Cc1cccc(Cc2ccccc2C=NC(c2ccccc2)c2ccccc2)c1 | 113 to 115

SMILES | melting point [°C]
Cc1nccn1Cc1ccc(N)cc1C(F)(F)F | 146 to 147
NC1(C2CCN(c3c(F)cc4c(=O)[nH]c(=O)n(C5CC5)c4c3OC(F)F)C2)CC1 (stereo not given) | 210 to 214
COc1ccc2[nH]c(COC(C)=O)c(C=O)c2c1[N+](=O)[O-] | 201 to 203
CCN(c1cc2c3c(c1)CCCC3CCC2)c1ncc(C(=O)O)cn1 | 252 to 253
CCCCCCCCCCCCc1cc(CBr)on1 | 31.5 to 35
CN(C)C(=O)COc1cccc(C=Cc2ccc3ccccc3n2)c1 | 104 to 106
Cc1c(C(=O)Nc2ccc(N3CCN(C4CCOCC4)CC3)c(C#N)c2)cnn1-c1ccc(F)c(F)c1 | 235
CCCCCC(C)C(C)c1cc(O)c2c3c(c(=O)oc2c1)SCC3 (stereo not given) | 165 to 166
O=c1[nH]c2ccccc2n1CCNCc1ccc(CN2CCCCC2)o1 | 83 to 85
C=Cc1ccc(CSCCNC(=O)COCC(=O)O)cc1 | 44.5 to 46
C#CCN(C(=O)CCl)c1c(C)nc(N(C)C)nc1C | 108 to 110
O=C1N(Cc2ccccn2)c2ccccc2C12COc1cc3c(cc12)CCO3 (stereo not given) | 84 to 85
Cc1c(NC(=O)c2ccc(OCC3CC3)cc2)ccc2cc(CNCC(C)(C)O)n(C)c12 | 180
Cn1c(=O)cc(CN2CCC(c3c[nH]c4ccccc34)CC2)c2ccccc21 | 228 to 229
CC(=O)c1nc(C)cn1-c1cc(C)c2[nH]c(=O)ccc2c1 | 312 to 314
Cc1nc(Cl)cc(C2(c3ccc(Cl)cc3)CCC2)n1 | 96 to 98
NC(=O)CC[C@H](NC(=O)CCc1ccc(OCc2ccccc2)cc1OCc1ccccc1)C(=O)N1CCN(Cc2ccccc2)CC1 | 145 to 147
Cc1nnc(Sc2nc3cc(C(=O)c4ccccc4)ccc3nc2C(F)(F)F)s1 | 176 to 179
COC(=O)C1=C(C)NC(C)=C(C(=O)OC)C1c1cccc(NC(=NC#N)N(C)CCCN2CCC(c3ccccc3)CC2)c1 | 135 to 145
COc1ccc2c(c1)C(=O)C(=O)N2c1ccc(F)cc1 | 246 to 247
CCCCC(=O)c1c(C)nc2cc(OC)c(OC)cc2c1-c1ccc(OC)c(OC)c1 | 119 to 120
COc1ccc(C2=NN(Cc3ccccc3)C(=O)[C@H]3CC=CC[C@@H]23)cc1OC (relative stereo) | 133 to 135
CCOC(=O)C(=CNc1ccnn1Cc1ccco1)C(=O)c1ccccc1 | 75 to 77
COc1cc(OCc2ccccc2)ccc1C(O)c1cc(Cl)ccc1N (stereo not given) | 101 to 103
COc1ccc(CSc2ccncc2)c2c1OC(C)(C)C2 | 109 to 113

SMILES | melting point [°C]
CCCc1c(OCCCSCCBr)ccc(C(C)=O)c1O | 74 to 75
Cc1ccc2ccccc2c1C1OC(=O)NC1=O (stereo not given) | 147 to 150
CCc1[nH]n(C2CCCC2)c2nc(Cc3ccc(OC)cc3)nc(=O)c1-2 | 172 to 173
CCC(=O)OCC(=O)OC1C(CC)CC2C3CCC4=CC(=O)CCC4C3CCC21C (stereo not given) | 101 to 104
CC(C)(CO[N+](=O)[O-])C(=O)N1C(C(=O)O)CSC1c1ccccc1 (stereo not given) | 35 to 38
COc1ccc(OCc2ccc3ccccc3n2)cc1 | 79 to 80
O=C(O)CSC(c1ccccc1)c1ccccc1 | 126 to 129
COC(=O)C(C)(SC)c1ccc(C(OC)(OC)c2ccccc2)s1 (stereo not given) | 61.5 to 62.5
COc1ccc(-c2cc3cc(F)c(F)cc3[nH]2)cc1NC(=S)Nc1cccc(C(=O)O)c1 | 221 to 223
Cc1cc(C)c2c(c1C)OC(C)(CBr)C2 (stereo not given) | 39 to 40
O=C(NC(Cc1c[nH]c2ccccc12)C(=O)CCc1cc(C(F)(F)F)cc(C(F)(F)F)c1)OCCc1ccccn1 (stereo not given) | 133 to 135
O=C(O)CCc1ccc(CCNC(=O)c2ccccc2)cc1 | 164 to 165
CC(=O)Nc1ccc2c(c1)CC1(OC1c1ccccc1)C2=O (stereo not given) | 195 to 197
CCCCN(CCCC)C(=O)CC(C)Nc1c(C#N)cnn1-c1ccc(Cl)c(Cl)c1Cl (stereo not given) | 101 to 103
CC(=O)NCCNCC(O)COc1ccc(CCOCC2CCC2)cc1 (stereo not given) | 108
CCCCc1c(/C=C/c2ccccc2OCC)nc2ccc(C(=O)O)cn2c1=O | 265 to 268
N#Cc1cnc2cc(-c3csc(CN4CCOCC4)c3)ccc2c1Nc1ccc(Cc2ccccc2)cc1 | 228 to 230
CC(C)(C)OC(=O)N1C[C@@H]2C(=O)CCC(c3ccccc3)(c3ccccc3)[C@@H]2C1 | 119
CC(C)(C)OC(=O)Nc1ccccc1C1Cc2ccccc2N1C(=O)OC(C)(C)C (stereo not given) | 148 to 150
CCOC(=O)C1(c2cccc(Cl)c2C)CCN(S(=O)(=O)c2ccc(C)cc2)CC1 | 134
COc1ccccc1NC(=O)c1ccc(C#N)cc1 | 158 to 160
CC(=Cc1ccsc1)N(O)C(N)=O | 165 to 167
CCn1c(Nc2cc(Cl)ccc2Cl)nc(C(F)(F)F)cc1=O | 167 to 168
Cc1cc(F)ccc1-c1nc(NC(C)(CO)CO)nc2c1ccc(=O)n2-c1ccccc1F | 160 to 162
CCOCc1nc2c(N)nc3ccccc3c2n1Cc1cc(C)no1 | 178 to 180
